# From PubChem BioAssay AID624491 (Broad Institute, 2012)
# Activity calls are given as the source filed them.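 Rule for the calls: active = fitted curve crossing a set activation limit at or below the highest valid dose tested; inconclusive = flat fit at 30 to 70% activation, or poor fit; inactive = the rest, including signal decreases.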
# System: D54 ERlucT glycosylation luciferase reporter, luminescence, 24 h
# Experiment: N-linked glycosylation inhibitors, luciferase reporter, dose response, D54 ERlucT cells, luminescence, cherry-picks (AID 624491);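 note: signal gain reflects blocked N-linked glycosylation of a luciferase reporter; actives raise luciferase signal so AC26 marks activators of the reporter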
row,Structure (SMILES),AC26
1,COc1ccc(CCn2c(=N)c(C(=O)NCC3CCCO3)cc3c(=O)n4cccc(C)c4nc32)cc1 (stereo not drawn),575 nM
2,O=C(c1[nH]c(C(F)(F)F)nc1-c1ccccc1)N1CCN(c2ccccc2)CC1,395 nM
3,COc1ccc(/C(C)=N/NC(=O)c2ccccc2OCc2ccccc2)c(OC)c1,121 nM
4,CN(C)S(=O)(=O)c1ccc(N2CCCC2)c(C(=O)Nc2nc3ccccc3s2)c1,545 nM
5,COc1ccc(C(=O)NCc2nnc(SCC(=O)NO)n2Cc2ccccc2)cc1,4440 nM
6,Cn1c(=O)n(C)c2cc(NS(=O)(=O)c3ccc4c(c3)CCCC4)ccc21,2670 nM
7,CCOc1ccc(C(=O)n2cc(C(=O)OC)c3ccccc32)cc1,> 19500 nM (inactive)
8,CCC(C)Nc1nc2ccccc2n2c(C)nnc12 (stereo not drawn),1500 nM
9,CC[C@]12c3[nH]c4cc(CCC(=O)N(C)C)ccc4c3CCN1C(=O)[C@@H](CC(=O)NC/C=C(\C)CCC=C(C)C)C[C@@H]2C(=O)N1CCN(C(=O)c2ccco2)CC1,2860 nM
10,O=C1[C@@H]2Cc3c([nH]c4ccccc34)C(c3ccc([N+](=O)[O-])cc3)N2C(=O)CN1C1CC1 (stereo partly drawn),11500 nM
11,Nc1cccc2c1C(=O)N(C(=O)/C=C/c1ccc(F)cc1)C2=O,6790 nM
12,CN1CCN(C(=O)/C=C/c2ccc([N+](=O)[O-])o2)CC1,3930 nM
13,Cc1ccc(-c2cc(C(=O)N3CC(C)OC(C)C3)c3ccccc3n2)o1 (stereo not drawn),4280 nM
14,CC(=O)N1CCc2c(sc(NC(=O)c3ccc4c(c3)OCCO4)c2C#N)C1,1950 nM
15,Nc1c(N(CCC2=CCCCC2)C(=O)COc2ccc(F)cc2Cl)c(=O)[nH]c(=O)n1Cc1ccccc1,1070 nM
16,COc1cc(C(=O)NCCOc2cc(C)cc(C)c2)cc(OC)c1OC,2370 nM
17,Cc1c(C(=O)Nc2ccc3oc(-c4cccnc4)nc3c2)oc2ccccc12,8840 nM
18,COc1ccc(CNC(=O)c2cccc3c(-c4cccnc4)coc23)cc1OC,2690 nM
19,CCN(CCCNC(=O)COc1cc(=O)n(CC)c2ccccc12)Cc1ccccc1,2530 nM
20,COc1cccc(C(NC(C)=O)c2nc(-c3ccc(F)cc3OC)cs2)c1 (stereo not drawn),105 nM
21,Nc1ccc(C(=O)N2CCN(S(=O)(=O)c3ccc4c(c3)OCCO4)CC2)cc1[N+](=O)[O-],3880 nM
22,O=C(NCCC1=CCCCC1)C1CCC(CNc2nc(=S)[nH]c3ccccc23)CC1 (stereo not drawn),3920 nM
23,CC(=O)C1=C(O)C(=O)N(c2ccc(Br)cn2)C1c1ccc(Br)cc1 (stereo not drawn),491 nM
24,CC(C)(C)c1nnc2sc(SCC(=O)c3ccc4c(c3)OCCO4)nn2c1=O,5230 nM
25,COc1ccc(CCCC(=O)NCc2ccccc2)cc1C,6540 nM
26,COc1cccc(/C=N/NC(=O)c2cc3c(OC)c(OC)ccc3[nH]2)c1OC,5850 nM

row,Structure (SMILES),AC26
1,CN(C)CCCN1C(=O)c2cccc3c(Br)ccc(c23)C1=O,871 nM
2,N#Cc1cc2[nH]c3ccccc3c2[n+](-c2ccc([N+](=O)[O-])cc2)c1N,4410 nM
3,CC(=O)Nc1cccc(-c2ccnc3c2CC(C)(C(=O)NCCC(F)(F)F)O3)c1 (stereo not drawn),4320 nM
4,CCOC(=O)c1c(CN(C)C)n(C)c2c(O)c(N=NC(N)=O)c3ccc(Br)cc3c12,242 nM
5,COc1ccc2c(c1)[C@H]1[C@H](CO2)[C@H](c2ccccc2)[C@]2(C)C(=O)Nc3cc(F)ccc3C(=O)N12,19 nM
6,CCC1=Nc2cc(C(=O)NCCCOC)ccc2Sc2ccccc21,422 nM
7,CCOC(=O)c1cc2sccc2n1CC(=O)N1CCc2ccccc21,7500 nM
8,CN(C)CCCNc1cc(-c2ccccc2)nc2cc(-c3cccc(F)c3)nn12,5210 nM
9,Cc1c(-c2nc(N)nc(Nc3ccccc3)n2)oc2ccccc12,3890 nM
10,Cc1noc(C)c1COc1cccc(C(=O)OC(C)C(=O)Nc2ccc3c(c2)OCO3)c1 (stereo not drawn),40.4 nM
11,CCc1ccc(Oc2coc3cc(OCC(=O)Nc4cc(C)ccc4C)ccc3c2=O)cc1,4860 nM
12,COc1ccc(CCn2c(=N)c(C(=O)NCC3CCCO3)cc3c(=O)n4cccc(C)c4nc32)cc1OC (stereo not drawn),652 nM
13,COc1ccc(CNC(=O)C/C(C)=N/NC(=O)COc2ccc(C)cc2Br)cc1,5660 nM
14,COC(=O)c1ccccc1NC(=O)Cn1c(-c2nonc2N)nc2ccccc21,120 nM
15,O=c1[nH]c(O)c(/C=C2/C=CC(c3cc(Cl)ccc3Cl)=N2)c(=O)[nH]1,2610 nM
16,CC(=O)Nc1cccc(-c2ccnc3c2CC(C)(C(=O)NCC2CC2)O3)c1 (stereo not drawn),5110 nM
17,CC(C)C(=O)Nc1ccc(C(=O)N/N=C/c2cc(Br)cc(Br)c2O)cc1,9890 nM
18,O=C1CCCN1CCCNc1nc(NCc2ccccc2)nc2ccsc12,4240 nM
19,CCN(CC)CCNc1nc2cc(OC)c(OC)cc2c2nc(-c3ccccc3)nn12,1860 nM
20,c1ccc(-c2cc(-c3nnc4n3N=C(c3ccc5ccccc5c3)CS4)[nH]n2)cc1,2110 nM
21,O=C(NCc1ccccc1Br)c1cccc2c1C(=O)c1ccc(-c3ccc(OC(F)(F)F)cc3)cc1S2(=O)=O,4060 nM
22,CC1CN(C(=O)c2cc(-c3ccncc3)nc3ccccc23)CC(C)O1 (stereo not drawn),2020 nM
23,COc1cc2c(C#N)c(N3CCc4ccccc4C3)nc(N)c2c(N)n1,6220 nM
24,CC(C)n1c(/C=C/[C@H](O)C[C@H](O)CC(=O)O)c(-c2ccc(F)cc2)c2ccccc21,77.8 nM
25,Cc1noc2ncnc(Sc3ccc(Br)cc3)c12,4470 nM
26,COC(=O)c1ccccc1NC(=O)Cn1nnc(-c2ccc(OC)cc2)n1,> 19500 nM (inactive)

row,Structure (SMILES),AC26
1,C[C@@]12C(=O)Nc3cc(Cl)ccc3C(=O)N1[C@H]1c3ccccc3OC[C@@H]1[C@@H]2c1ccccc1,397 nM
2,O=c1[nH]c(=O)n(C2CC(O)C(CO)O2)cc1Br (stereo not drawn),1490 nM
3,CNc1ccc(Br)cc(C(=O)/C=C/c2ccc(OC)cc2)c1=O,2660 nM
4,CCN(CC)CCCNc1cc(C)c(C#N)c2nc3ccccc3n12,17000 nM
5,COc1ccc(C(=O)N2CCN(S(=O)(=O)c3ccc(C)cc3C)CC2)cc1S(=O)(=O)N1CCOCC1,5770 nM
6,Cc1ccnc(NC(=O)C(Cc2ccccc2)NC(=O)c2ccccc2)c1 (stereo not drawn),564 nM
7,COc1ccc2noc3c2c1C(=O)c1ccccc1-3,441 nM
8,COc1ccc(C(=O)Nc2sc(C)c(C)c2CN2CC(C)OC(C)C2)cc1 (stereo not drawn),659 nM
9,Cc1[nH][nH]c(=O)c1C(c1ccc(-c2ccc(F)cc2)o1)c1c(C)[nH][nH]c1=O,4090 nM
10,COc1ccc(/C=N/NC(=O)c2c(C)nc3ccc(Br)cn23)cc1OC,2520 nM
11,CCOc1ccc(NC(=O)c2cc(OC)nc3ccccc23)cc1,284 nM
12,CCN1CCN(c2ccc([N+](=O)[O-])cc2C(=O)c2ccc(Cl)cc2)CC1,11200 nM
13,CCOC(=O)c1[nH]c(C)c(C(=O)N2CCc3ccccc32)c1C,133 nM
14,C=C(C)Cn1c2ccc(NC(=O)CCc3cccc(Cl)c3)cc2c(=O)n1C,7490 nM
15,Cc1ccc(NC(=O)c2ncn(CCCNCc3ccccc3)n2)cc1C,800 nM
16,c1ccc(-n2nnnc2-c2cccc3ccccc23)cc1,2390 nM
17,COC(=O)COc1cccc2c(=O)n(CC(=O)NCc3ccccc3)ccc12,1250 nM
18,COc1ccccc1CCC(=O)Nc1ccc2c(c1)c(=O)n(C)n2-c1cccs1,124 nM
19,Cc1ccc(S(=O)(=O)[N-]c2nc3ccccc3nc2-n2cc[n+](Cc3ccccc3)c2)cc1,118 nM
20,O=C1N[C@H]2CC=C[C@H]2N(Cc2cccs2)c2ccccc21,895 nM
21,CCN1C(=O)c2cccc3c(S(=O)(=O)Nc4ccccc4OC)ccc1c23,4240 nM
22,COc1ccc(Cl)cc1NC(=O)CN(C)CC(=O)Nc1ccccc1N1CCOCC1,658 nM
23,O=C(NCCN1C(=O)S/C(=C\c2ccccc2Cl)C1=O)C1=COCCO1,7850 nM
24,O=c1[nH]c(=O)n(C2CC(O)C(CO)O2)cc1I (stereo not drawn),880 nM
25,CCc1ccc(C(=O)Nc2ccc3c(c2)n(C)c(=O)n3C)cc1,6220 nM
26,COc1ccc2[nH]c3c(N4CCC(O)(c5cccc(C(F)(F)F)c5)CC4)ncnc3c2c1,2740 nM

row,Structure (SMILES),AC26
1,COc1cc(/C=N/Nc2nc3c(c(=O)n(C)c(=O)n3C)n2Cc2ccccc2)ccc1OC(=O)c1ccco1,10500 nM
2,COc1ccccc1N=CC1=C(O)CC(c2ccccc2)CC1=O (stereo not drawn),2740 nM
3,Cc1cc(C)cc(-n2c3ccc(NC(=O)Cc4cccc5ccccc45)cc3c(=O)n2C)c1,1780 nM
4,NC(=O)CC(NC(=O)c1ccc(Br)cc1)c1ccc(N2CCCCCC2)c([N+](=O)[O-])c1 (stereo not drawn),1410 nM
5,C=CCN1c2ccccc2[C@]23C[C@@H](C(=O)OC)N(C(=O)c4ccc(Br)cc4)C2=NC(C(=O)OC)=C(C(=O)OC)[C@H]13,6060 nM
6,Cc1nc(-c2ccccc2)sc1-c1nc(-c2ccncc2)ncc1S(=O)(=O)c1ccccc1,956 nM
7,COc1cc2c(cc1OC)C(C)N(C(=O)Nc1cc(C)cc(C)c1)CC2 (stereo not drawn),6970 nM
8,Cc1ccc(C(=O)N/C(=C\c2cccs2)C(=O)NCCc2c[nH]c3ccccc23)cc1C,4860 nM
9,COc1ccc(CC(=O)N(Cc2ccccc2)c2ccc(C)cc2)cc1S(=O)(=O)N1CCOCC1,1160 nM
10,COc1ccc2c(c1)C(=O)N1[C@H]3c4cc(C)ccc4OC[C@@H]3[C@H](c3ccccc3)[C@]1(C)C(=O)N2,358 nM
11,CC(C)/C=C1\CC/C(=C\c2cccnc2)C1=O,4840 nM
12,O=C(N/N=C/c1cccnc1)c1cc(-c2ccccc2OCc2ccccc2)n[nH]1,1890 nM
13,NC(=O)CC(NC(=O)Cc1ccc(Cl)cc1)c1ccc(NC2CCN(Cc3ccccc3)CC2)c([N+](=O)[O-])c1 (stereo not drawn),480 nM
14,Nc1ccc(-c2cc(NC=O)c3ncc(-c4cccc(C(F)(F)F)c4)n3c2)cn1,3430 nM
15,COc1cccc(-c2cc3nc(-c4ccccc4)cc(=O)n3[nH]2)c1,7070 nM
16,CC(=O)n1cc(/C=N/NC(=O)c2sc(C)nc2C)c2ccccc21,10000 nM
17,CN(C)S(=O)(=O)c1ccc(N2CCCC2)c(C(=O)Nc2cccc(F)c2)c1,931 nM
18,CCOc1ccc(S(=O)(=O)NCc2cccnc2)cc1NC(=O)c1ccccc1F,9740 nM
19,CC(CCc1ccco1)NC(=O)CCc1nnc2ccc(NCc3ccc(Cl)cc3)nn12 (stereo not drawn),1260 nM
20,Cc1cccc(NC(=O)Nc2cccc(C#N)c2)n1,4060 nM
21,Nc1nc(=S)c2ncn(C3OC(CO)C(O)C3O)c2[nH]1 (stereo not drawn),4980 nM
22,COc1ccc(C(=O)/C=C2/C(=O)Nc3ccccc32)c(OC)c1,4070 nM
23,Cc1ccsc1CNc1ncnc2ccc(-c3c(C)noc3C)cc12,102 nM
24,O=C(C[C@@H]1C[C@H]2c3cc(NC(=O)c4cccnc4)ccc3O[C@H]2[C@H](CO)O1)NCc1ccc(Oc2ccccc2)cc1,8780 nM
25,COc1ccccc1-c1nnc2sc(-c3cc4ccccc4o3)nn12,63.7 nM
